# Laboratory results taken from PMC11050599, “Novel Tetracyclic Azaphenothiazines with the Quinoline Ring as New Anticancer and Antibacterial Derivatives of Chlorpromazine” (International Journal of Molecular Sciences, 2024).
# Assays:
# [1] = test system: PC3 (prostate cancer); assay: MTT assay, PC3 cells; assay type: cell-based, human; details: for IC50: Homo sapiens, PC-3, MTT, 72 h, read-out: IC50 PC3; for SI PC3: SI = IC50 for normal cell line (HaCaT)/IC50 cancer cell line
# Experimental: (§1) The human cell lines, such as A549 (lung cancer), MDA-MB-231 (breast cancer), MiaPaca-2 (pancreatic cancer), PC3 (metastatic prostate cancer), HCT-116 (colon carcinoma), and HaCaT (immortalized keratinocytes), were sourced from the American Type Culture Collection (ATCC) in Rockville, USA. Culturing conditions varied as follows: HCT116 cells were cultured in MEM (ThermoSci, Waltham, MA, USA), A549, MDA-MB-231, MiaPaca, HaCaT cells in DMEM High Glucose and PC3 cells were cultured in RPMI (Biowest SAS, Nuaillé, France). The growth medium consisted of 10% fetal bovine serum (FBS, Sigma-Aldrich, St. Louis, MO, USA), 20 mM HEPES (Biowest, Nuaillé, France), and antibiotics (100 U/mL of penicillin and 100 μg/mL of streptomycin) from Gibco, Grand Island, NY, USA. […] These compounds were added to 96-well plates containing study cells (1 × 10^4 cells per well) and incubated for 72 h. […] Cell absorbance results were incorporated into the formula for calculating the relative MTT level (%), enabling the assessment of cell viability following exposure to the test compounds. The cell viability percentage represents the MTT reduction in cells treated with the test compounds compared to the control sample, where only the medium was added to the cells.
# [2] = test system: HCT116 cells; assay: Cell cycle analysis by flow cytometry, HCT116; assay type: cell-based, human; details: IC50, 24 h, compared to the control
# Experimental: In brief, cells were seeded at a density of 1 × 10^5 cells/well on a six-well plate and allowed to adhere for 24 h. […] Both population cells (the attached and detached) were collected and centrifuged at 400× g for 5 min at 4 °C. After centrifugation, the cells were washed twice with 0.9% NaCl and subsequently fixed in 500 μL of 70 % cold ethanol overnight.
# Before analysis, the fixed cells underwent another centrifugation step at 850× g for 5 min at 4 °C and were washed with PBS. Following the washes, the cells were incubated with 50 μL of RNase (100 μg/mL) and 200 μL of propidium iodide (PI) (50 μg/mL) at 37 °C for 30 min in the dark. Finally, 100 μL of PBS was added to each sample. Flow cytometry (Becton Dickinson FACS Verse, Franklin Lakes, NJ, USA) was then used to analyze the cell cycle distribution, identifying cells in various stages including sub-G1, G0/G1, S, and G2/M phases. Each assay was performed in quadruplicate.
# [3] = test system: HCT116 cells; assay: Annexin V-FITC/PI apoptosis flow cytometry, HCT116; assay type: cell-based, human; details: for HCT-116: Alive / HCT-116: Early Apoptotic / HCT-116: Necrotic / HCT-116: Necrotic/Late Apoptotic: representative dot plot, Figure 4C, IC50, 72 h
# Experimental: (§2) To analyze the number of cells in early apoptosis, late apoptosis, or necrosis, A549, MiaPaca-2, and HCT-116 cell lines were cultured in 6-well plates with a seeding density of 1 × 10^5 cells per well. These cells were then treated with selected compounds (4, 5, and 8) at their respective IC50 concentrations and incubated for 72 h. Subsequently, a commercially available kit, the FITC: Annexin V Apoptosis Detection Kit I from BD Biosciences Pharmingen in San Jose, CA, USA, was utilized to assess apoptosis. After 72 h the cells were harvested, washed, and labeled with Annexin V-FITC and propidium iodide (PI) following the manufacturer’s protocol (Becton Dickinson), as previously described. The stained cells were analyzed by flow cytometry. The cells were identified as early apoptotic (Annexin V+/PI−) or late apoptotic/necrotic (Annexin V+/PI+).
# [4] = test system: A549 (lung cancer); assay: MTT assay, A549 cells; assay type: cell-based, human; details: for IC50: Homo sapiens, A549, MTT, 72 h, mean SD, read-out: IC50 A549
# Experimental: as §1
# [5] = test system: HCT116 (colon cancer); assay: MTT assay, HCT116 cells; assay type: cell-based, human; details: for IC50: Homo sapiens, HCT-116, MTT, 72 h, read-out: IC50 HCT116
# Experimental: as §1
# [6] = test system: S. aureus NCTC 4163; assay: MIC broth microdilution; assay type: cell-based; details: Staphylococcus aureus, NCTC4163; 19 h, 35 °C; read-out: MIC S. aureus NCTC 4163
# Description: (§3) To evaluate the antibacterial effectiveness of chloroquinobenzothiazine derivatives, various bacterial strains from international microbe collections such as the American Type Culture Collection (ATCC) and the National Collection of Type Culture (NCTC) were examined, alongside a panel of clinical rods. This included two Gram-negative organisms, E. coli ATCC 25922 and P. aeruginosa ATCC 15442, and a series of six Gram-positive strains: S. aureus NCTC 4163; S. aureus ATCC 29213, 25923, and 6538; and S. epidermidis ATCC 12228 and 35984. […] The MIC was determined using the two-fold serial broth microdilution method in 96-well microtitration plates containing Mueller-Hinton II broth medium (Becton Dickinson, Franklin Lakes, NJ, USA). The final inoculum for all tested bacteria was adjusted to […] (colony-forming units per milliliter). The stock solution of the tested compounds was prepared in dimethyl sulfoxide (DMSO) and diluted to a maximum of 1% solvent content with a sterile medium.
# [7] = test system: S. epidermidis ATCC 35984; assay: MIC broth microdilution; assay type: cell-based; details: Staphylococcus epidermidis, ATCC35984; 19 h, 35 °C; read-out: MIC S. epidermidis ATCC 35984
# Description: as §3
# [8] = test system: S. aureus ATCC 25923; assay: MIC broth microdilution; assay type: cell-based; details: Staphylococcus aureus, ATCC25923; 19 h, 35 °C; read-out: MIC S. aureus ATCC 25923
# Description: as §3
# [9] = test system: S. aureus ATCC 6538; assay: MIC broth microdilution; assay type: cell-based; details: Staphylococcus aureus, ATCC6538; 19 h, 35 °C; read-out: MIC S. aureus ATCC 6538
# Description: as §3
# [10] = test system: P. aeruginosa ATCC 15442; assay: MIC broth microdilution; assay type: cell-based; details: Pseudomonas aeruginosa, ATCC15442; 19 h, 35 °C; read-out: MIC P. aeruginosa ATCC 15442
# Description: as §3
# [11] = test system: S. epidermidis ATCC 12228; assay: MIC broth microdilution; assay type: cell-based; details: Staphylococcus epidermidis, ATCC12228; 19 h, 35 °C; read-out: MIC S. epidermidis ATCC 12228
# Description: as §3
# [12] = test system: S. aureus ATCC 29213; assay: MIC broth microdilution; assay type: cell-based; details: Staphylococcus aureus, ATCC29213; 19 h, 35 °C; read-out: MIC S. aureus ATCC 29213
# Description: as §3
# [13] = test system: E. coli ATCC 25922; assay: MIC broth microdilution; assay type: cell-based; details: Escherichia coli, ATCC25922; 19 h, 35 °C; read-out: MIC E. coli ATCC 25922
# Description: as §3
# [14] = test system: HaCaT (immortalized human keratinocytes); assay: MTT assay, HaCaT normal cells; assay type: cell-based; details: Homo sapiens, HaCaT; MTT, 72 h, normal cells; read-out: IC50 HaCaT (Table 3)
# Experimental: as §1
# [15] = test system: MDA-MB-231 (breast cancer); assay: MTT assay, MDA-MB-231 cells; assay type: cell-based, human; details: for IC50: Homo sapiens, MDA-MB-231, MTT, 72 h, MDA-MB231, read-out: IC50 MDA
# Experimental: as §1
# [16] = test system: MiaPaCa-2 (pancreas cancer); assay: MTT assay, MiaPaCa-2 cells; assay type: cell-based, human; details: for IC50: Homo sapiens, MIA PaCa-2, MTT, 72 h, read-out: IC50 MiaPaCa-2; for SI MiaPaCa-2: SI = IC50 for normal cell line (HaCaT)/IC50 cancer cell line
# Experimental: as §1
# [17] = test system: A549 cells; assay: Annexin V-FITC/PI apoptosis flow cytometry, A549; assay type: cell-based, human
# Experimental: as §2
# [18] = SI = IC50 for normal cell line (HaCaT)/IC50 cancer cell line
# [19] = representative dot plot, Figure 4A, IC50, 72 h
IC50 [1],IC50 [4],IC50 [5],MIC [6],MIC [7],MIC [8],MIC [9],MIC [10],MIC [11],MIC [12],MIC [13],SMILES,SI PC3 [1],"increase in the cell amount at the sub-G1 phase, HCT116 [2]","increase in the number of cells in the G2/M phase, HCT116 [2]","increase in the number of cells in the S phase, HCT116 [2]","cells in late apoptosis/necrosis, HCT116 ([3]; compound at IC50, 72 h)",HCT-116: Alive [3],HCT-116: Early Apoptotic [3],HCT-116: Necrotic [3],HCT-116: Necrotic/Late Apoptotic [3],other results
> 100 µM,30.5 ± 8.3 µM,0.7 ± 0.08 µM,> 256 µg/mL,> 256 µg/mL,> 256 µg/mL,> 256 µg/mL,> 256 µg/mL,> 256 µg/mL,> 256 µg/mL,> 256 µg/mL,"CS(=O)(=O)NCCCCN1c2cc(Cl)ccc2Sc2cc3ccccc3nc21 [Compound 23, N-(4-(8-Chloroquino[3,2-b]benzo[1,4]thiazin-6-yl)butyl)methanesulfonamide]",1.0,11 fold,approximately 1.3 fold,approximately 2 fold,93%,3.42%,0.76%,3.85%,91.97%,"SI A549 [4, 18]: 3.3; SI HCT116 [5, 18]: 143; IC50 [14]: > 100 µM; IC50 [15]: > 100 µM; IC50 [16]: 98.4 ± 5.6 µM; SI MiaPaCa-2 [16]: 1.0"
52.1 ± 7.1 µM,8.2 ± 3.6 µM,1.6 ± 0.8 µM,8 µg/mL,8 µg/mL,8 µg/mL,8 µg/mL,256 µg/mL,8 µg/mL,8 µg/mL,64 µg/mL,"CN(C)CCCN1c2cc(Cl)ccc2Sc2cc3ccccc3nc21 [Compound 8, 3-(8-Chloroquino[3,2-b]benzo[1,4]thiazin-6-yl)-N,N-dimethylpropan-1-amine]",1.2,5 fold,approximately 1.3 fold,approximately 2 fold,8.55 ± 0.33%,78.75%,9.09%,3.61%,8.55%,"cells in early apoptosis, HCT116 ([3]; compound at IC50, 72 h): 9.09 ± 0.5%; cells in late apoptosis or necrosis, A549 ([17]; compound at IC50, 72 h): 42%; A549: Alive [17, 19]: 62.41%; A549: Early Apoptotic [17, 19]: 2.39%; A549: Necrotic [17, 19]: 24.93%; A549: Necrotic/Late Apoptotic [17, 19]: 10.27%; IC50 [14]: 62.3 ± 2.5 µM; IC50 [15]: 52.1 ± 2.7 µM; SI MDA [15, 18]: 1.2; IC50 [16]: 40.2 ± 0.7 µM; SI MiaPaCa-2 [16]: 1.6"
